For one test, the target named is T1, AMPK 111 (Homo sapiens, UniProt Q13131+Q9Y478).
T1 construct: open reading frames encoding the full-length α1, β1 and δ1 subunits of human AMPK; made in house; host or cells: E. coli BL21-CodonPlus (DE3)-RIPL, pET-14b
As to the kind of experiment: Biochemical profiling of AMPK activators by AMPK111 (HTRF/TR-FRET assay, SAMS peptide, PP2A dephosphorylation protection). Conditions: for EC50: phosphorylated AMPK 111 (α1β1δ1 as printed), 11 point dilution, duplicate, 4-parameter fit; for Emax: phosphorylated AMPK 111, maximal activation. Here is the method: (§1) The biochemical EC50 (half-maximal concentration required for full activation) of compounds for the activation of AMPK was evaluated by HTRF assay using LANCE Ultra ULight-Acetyl-CoA Carboxylase (SAMS) peptide (commercially available, Perkin Elmer catalog TRF0133-M).
Following a fifteen-minute room temperature incubation, 5 μL of 30 nM protein phosphatase PP2A (isolation detailed above) diluted in the assay buffer was added to the plate, to dephosphorylate pThr172 of AMPK. […] The reaction was terminated after 60 minutes incubation at room temperature, by the addition of 5 μL of stop and detection cocktail, which consisted of 1× Perkin Elmer Lance buffer (Perkin Elmer catalog number CR97-100), 40 mM EDTA (Thermo Fisher catalog number BP2482-100), and 2 nM Eu-anti-Acetyl CoA Carboxylase [pSer70] antibody (Perkin Elmer, TRF0208-M).
(TR-FRET usually uses a lanthanide donor and a delayed reading to cut background.)

In the next test the target is T2, AMPK 221 (Homo sapiens, UniProt O43741+P54646).
T2 construct: open reading frames encoding the full-length α2, β2 and δ1 subunits of human AMPK; made in house; host or cells: E. coli BL21-CodonPlus (DE3)-RIPL, pET-14b
As to the kind of experiment: Biochemical profiling of AMPK activators by AMPK221 (HTRF/TR-FRET assay, SAMS peptide, PP2A dephosphorylation protection). The settings on record: for EC50: phosphorylated AMPK 221 (α2β2δ1), 11 point dilution, duplicate, 4-parameter fit; for Emax: phosphorylated AMPK 221, maximal activation. Here is the method:
as §1
The reaction was terminated after 60 minutes incubation at room temperature by the addition of 5 μL of stop and detection cocktail, which consisted of 1× Perkin Elmer Lance buffer (Perkin Elmer catalog number CR97-100), 40 mM EDTA (Thermo Fisher catalog number BP2482-100), and 2 nM Eu-anti-Acetyl CoA Carboxylase [pSer70] antibody (Perkin Elmer, TRF0208-M). Plates were spun at 1000 RPM, 10 seconds.

T2 sequence (P54646 whole entry): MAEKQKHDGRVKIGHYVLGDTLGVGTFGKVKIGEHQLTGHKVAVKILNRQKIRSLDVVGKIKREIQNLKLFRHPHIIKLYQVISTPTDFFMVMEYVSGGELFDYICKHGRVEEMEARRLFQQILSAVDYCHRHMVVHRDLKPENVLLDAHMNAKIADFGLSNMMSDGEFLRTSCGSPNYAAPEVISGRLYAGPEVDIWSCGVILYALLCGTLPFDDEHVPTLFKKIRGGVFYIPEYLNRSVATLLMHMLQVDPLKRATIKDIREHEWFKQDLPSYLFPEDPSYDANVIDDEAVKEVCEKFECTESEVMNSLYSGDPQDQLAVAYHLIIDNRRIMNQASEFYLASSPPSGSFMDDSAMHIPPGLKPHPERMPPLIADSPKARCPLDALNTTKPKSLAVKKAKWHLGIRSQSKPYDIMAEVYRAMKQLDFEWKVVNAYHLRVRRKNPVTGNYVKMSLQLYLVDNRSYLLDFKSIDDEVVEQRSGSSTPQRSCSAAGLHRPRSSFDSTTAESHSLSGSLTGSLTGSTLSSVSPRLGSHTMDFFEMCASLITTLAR
T2 sequence (O43741 whole entry): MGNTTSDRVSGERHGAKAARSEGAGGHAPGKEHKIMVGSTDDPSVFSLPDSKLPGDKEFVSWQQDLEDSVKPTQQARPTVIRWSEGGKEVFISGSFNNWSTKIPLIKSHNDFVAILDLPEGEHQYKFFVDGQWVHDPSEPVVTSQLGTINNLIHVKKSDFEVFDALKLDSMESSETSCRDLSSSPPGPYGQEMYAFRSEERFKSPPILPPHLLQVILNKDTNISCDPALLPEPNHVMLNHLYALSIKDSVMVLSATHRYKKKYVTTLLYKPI
T2 sequence (P54619 whole entry partner): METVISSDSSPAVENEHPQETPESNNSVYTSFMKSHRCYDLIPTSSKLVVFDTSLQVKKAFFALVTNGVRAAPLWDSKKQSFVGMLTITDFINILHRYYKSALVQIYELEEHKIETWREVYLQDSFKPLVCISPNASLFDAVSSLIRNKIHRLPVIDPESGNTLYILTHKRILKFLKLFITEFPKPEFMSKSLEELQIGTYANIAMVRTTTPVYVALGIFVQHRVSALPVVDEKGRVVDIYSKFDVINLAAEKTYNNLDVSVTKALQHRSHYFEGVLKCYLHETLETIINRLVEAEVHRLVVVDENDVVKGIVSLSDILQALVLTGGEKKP
T1 sequence (Q13131 whole entry): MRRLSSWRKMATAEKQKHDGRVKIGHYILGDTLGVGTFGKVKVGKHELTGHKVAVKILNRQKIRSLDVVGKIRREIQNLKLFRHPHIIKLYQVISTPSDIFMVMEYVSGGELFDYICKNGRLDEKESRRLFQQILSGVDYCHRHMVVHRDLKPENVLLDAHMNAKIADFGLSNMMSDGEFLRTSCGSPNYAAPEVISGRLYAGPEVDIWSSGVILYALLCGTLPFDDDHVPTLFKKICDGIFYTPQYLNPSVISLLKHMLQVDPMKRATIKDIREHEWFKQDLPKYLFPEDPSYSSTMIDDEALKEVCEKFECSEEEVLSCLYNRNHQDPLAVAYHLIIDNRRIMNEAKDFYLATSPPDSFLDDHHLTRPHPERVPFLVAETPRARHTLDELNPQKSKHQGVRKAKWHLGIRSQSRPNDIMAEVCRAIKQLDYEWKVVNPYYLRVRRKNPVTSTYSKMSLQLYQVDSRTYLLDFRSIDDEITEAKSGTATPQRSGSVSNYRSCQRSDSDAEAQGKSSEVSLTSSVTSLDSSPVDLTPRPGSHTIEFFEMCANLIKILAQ
T1 sequence (Q9Y478 whole entry): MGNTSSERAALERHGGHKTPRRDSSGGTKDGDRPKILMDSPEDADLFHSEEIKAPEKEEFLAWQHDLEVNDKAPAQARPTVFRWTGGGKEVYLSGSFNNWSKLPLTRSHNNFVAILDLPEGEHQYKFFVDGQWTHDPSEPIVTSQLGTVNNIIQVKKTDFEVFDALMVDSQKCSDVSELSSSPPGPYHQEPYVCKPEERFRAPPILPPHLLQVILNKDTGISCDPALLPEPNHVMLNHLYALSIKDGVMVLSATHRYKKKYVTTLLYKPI
T1 sequence (P54619 whole entry partner): as the sequence (P54619 whole entry partner) above

Take `NC(=O)Cc1ccc(-c2ccc(-c3cc4c(CCC(=O)O)n[nH]c4cc3Cl)cc2)cc1` [Example 30, 3-(5-(4′-(2-amino-2-oxoethyl)-[1,1′-biphenyl]-4-yl)-6-chloro-1H-indazol-3-yl)propanoic acid]: the 50% effective concentration (EC50) on AMPK 111 came to 36 nM; on AMPK 221 it was 173 nM. For the same compound, the maximal response (Emax) was 80% at AMPK 111 and 65% on AMPK 221.

Turning to `Cc1cscc1-c1ccc(-c2cc3c(CCC(=O)O)n[nH]c3cc2Cl)cc1` [Example 60, 3-(6-chloro-5-(4-(4-methylthiophen-3-yl)phenyl)-1H-indazol-3-yl)propanoic acid], on AMPK 111, the half-maximal effective concentration (EC50) came out at 241 nM and the maximum response (Emax) was 53%. Moreover, on AMPK 221, the midpoint of the response, the EC50, lay at 532 nM and the Emax came to 21%.

At AMPK 111, `Cc1ccc(F)c(O)c1-c1ccc(-c2cc3c(CCC(=O)O)n[nH]c3cc2Cl)cc1` [Example 20, 3-(6-chloro-5-(3′-fluoro-2′-hydroxy-6′-methyl-[1,1′-biphenyl]-4-yl)-1H-indazol-3-yl)propanoic acid] came in with an EC50 of 16 nM and an Emax of 82%. At AMPK 221, this compound returned an EC50 of 97 nM and an Emax of 61%.

Regarding `NC(c1ccc(-c2ccc(-c3cc4c(CCC(=O)O)n[nH]c4cc3Cl)cc2)c(O)c1)C(F)(F)F` (centres unmarked) [Example 13, 3-(5-(4′-(1-amino-2,2,2-trifluoroethyl)-2′-hydroxy-[1,1′-biphenyl]-4-yl)-6-chloro-1H-indazol-3-yl)propanoic acid], at AMPK 111, the EC50 amounted to 21 nM and the Emax stood at 86%. In addition, on AMPK 221, the EC50 came to 69 nM and the Emax turned out to be 67%.

At AMPK 111, `Cc1ccc(-c2ccc(-c3cc4c(CCC(=O)O)n[nH]c4cc3Cl)cc2)s1` [Example 56, 3-(6-chloro-5-(4-(5-methylthiophen-2-yl)phenyl)-1H-indazol-3-yl)propanoic acid] had an EC50 of 363 nM and an Emax of 48%. In addition, at AMPK 221, the EC50 was 477 nM and the Emax was 18%.

At AMPK 111, `O=C(O)CNc1n[nH]c2cc(Cl)c(-c3ccc(-c4ccccc4O)cc3)cc12` [Example 19, (6-Chloro-5-(2′-hydroxy-[1,1′-biphenyl]-4-yl)-1H-indazol-3-yl)glycine] displayed an EC50 of 54 nM and an Emax of 79%. On AMPK 221, this compound came in with a 50% effective concentration (EC50) of 144 nM and a maximal response (Emax) of 34%.

As to `COc1ccc(C)c(-c2ccc(-c3cc4c(CCC(=O)O)n[nH]c4cc3Cl)cc2)c1O` [Example 62, 3-(6-chloro-5-(2′-hydroxy-3′-methoxy-6′-methyl-[1,1′-biphenyl]-4-yl)-1H-indazol-3-yl)propanoic acid], the EC50 at AMPK 111 worked out at 25 nM; at AMPK 221 it was 14 nM. Also, the Emax on AMPK 111 was determined as 72%; on AMPK 221, 57%.

Regarding `O=C(O)CCc1n[nH]c2cc(Cl)c(-c3ccc(-c4cnsc4)cc3)cc12` [Example 65, 3-(6-chloro-5-(4-(isothiazol-4-yl)phenyl)-1H-indazol-3-yl)propanoic acid], on AMPK 111, the response was half-maximal at 263 nM (EC50) and the Emax turned out to be 79%. On AMPK 221, this compound came in with an EC50 of 795 nM and a maximal response (Emax) of 58%.

In the case of `Cn1c(O)nc2cc(-c3ccc(-c4cc5c(CCC(=O)O)n[nH]c5cc4Cl)cc3)ccc21` [Example 53, 3-(6-chloro-5-(4-(2-hydroxy-1-methyl-1H-benzo[d]imidazol-5-yl)phenyl)-1H-indazol-3-yl)propanoic acid], the results for the EC50 on AMPK 111 and at AMPK 221 were 218 nM and 644 nM, respectively. Also, the results for the Emax at AMPK 111 and on AMPK 221 were 69% and 55%, respectively.

At AMPK 111, `O=C(O)CCc1n[nH]c2cc(Cl)c(-c3ccc(-c4ccccc4)cc3)cc12` [Example 51, 3-(5-([1,1′-biphenyl]-4-yl)-6-chloro-1H-indazol-3-yl)propanoic acid] returned a concentration for a half-maximal effect (EC50) of 312 nM and an Emax of 71%. In addition, at AMPK 221, it took 355 nM to reach a half-maximal effect (EC50) and the maximal effect (Emax) amounted to 22%.

Consider `O=C(O)CCc1n[nH]c2cc(Cl)c(-c3ccc(-c4cccc(F)c4O)cc3)cc12` [Example 22, 3-(6-chloro-5-(3′-fluoro-2′-hydroxy-[1,1′-biphenyl]-4-yl)-1H-indazol-3-yl)propanoic acid], for which the EC50 at AMPK 111 was 111 nM; at AMPK 221, 100 nM. In addition, the figures for the Emax on AMPK 111 and at AMPK 221 were 74% and 59%, respectively.

On AMPK 111, `CSc1ccc(-c2ccc(-c3cc4c(CCC(=O)O)n[nH]c4cc3Cl)cc2)c(O)c1` [Example 63, 3-(6-chloro-5-(2′-hydroxy-4′-(methylthio)-[1,1′-biphenyl]-4-yl)-1H-indazol-3-yl)propanoic acid] came in with a concentration giving a half-maximal response (EC50) of 281 nM and an Emax of 56%. At AMPK 221, the EC50 was 565 nM and the Emax is 64%.

In the case of `COc1c(F)ccc(-c2ccc(-c3cc4c(CCC(=O)O)n[nH]c4cc3Cl)cc2)c1O` [Example 16, 3-(6-chloro-5-(4′-fluoro-2′-hydroxy-3′-methoxy-[1,1′-biphenyl]-4-yl)-1H-indazol-3-yl)propanoic acid], the EC50 at AMPK 111 was found to be 37 nM; at AMPK 221, 81 nM. Further, the maximal effect (Emax) on AMPK 111 came out at 86%; at AMPK 221, 64%.

On AMPK 111, `N#Cc1cc2[nH]nc(CCC(=O)O)c2cc1-c1ccc(-c2ccccc2O)cc1` [Example 35, 3-(6-cyano-5-(2′-hydroxy-[1,1′-biphenyl]-4-yl)-1H-indazol-3-yl)propanoic acid] registered a concentration for a half-maximal effect (EC50) of 137 nM and an Emax of 67%. On AMPK 221, this compound came in with an EC50 of 198 nM and an Emax of 47%.

At AMPK 111, `CS(=O)(=O)c1ccc(-c2ccc(-c3cc4c(CCC(=O)O)n[nH]c4cc3Cl)cc2)cc1` [Example 44, 3-(6-chloro-5-(4′-(methylsulfonyl)-[1,1′-biphenyl]-4-yl)-1H-indazol-3-yl)propanoic acid] yielded an EC50 of 85 nM and a maximal response (Emax) of 79%. Moreover, on AMPK 221, the EC50 is 204 nM and the Emax came to 52%.

As for `O=C(O)CCc1n[nH]c2cc(Cl)c(-c3ccc(-c4c(O)cccc4Cl)cc3)cc12` [Example 46, 3-(6-chloro-5-(2′-chloro-6′-hydroxy-[1,1′-biphenyl]-4-yl)-1H-indazol-3-yl)propanoic acid], at AMPK 111, a half-maximal response (EC50) required 20 nM and the maximal response (Emax) came to 82%. On AMPK 221, this compound had a 50% effective concentration (EC50) of 267 nM and a maximal response (Emax) of 59%.

On AMPK 111, `O=C(O)CCc1n[nH]c2cc(Cl)c(-c3ccc(-c4cccc(CO)c4)cc3)cc12` [Example 61, 3-(6-chloro-5-(3′-(hydroxymethyl)-[1,1′-biphenyl]-4-yl)-1H-indazol-3-yl)propanoic acid] yielded an EC50 of 692 nM and a maximal response (Emax) of 55%. Also, at AMPK 221, the concentration giving a half-maximal response (EC50) stood at 645 nM and the maximal response (Emax) worked out at 34%.

Regarding `NS(=O)(=O)c1ccc(-c2ccc(-c3cc4c(CCC(=O)O)n[nH]c4cc3Cl)cc2)cc1` [Example 40, 3-(6-chloro-5-(4′-sulfamoyl-[1,1′-biphenyl]-4-yl)-1H-indazol-3-yl)propanoic acid], at AMPK 111, the EC50 is 92 nM and the Emax was 85%. Further, at AMPK 221, the EC50 was 306 nM and the maximal response (Emax) turned out to be 68%.

At AMPK 111, `O=C(O)CCc1n[nH]c2cc(Cl)c(-c3ccc(-c4c(Cl)ccc(F)c4O)cc3)cc12` [Example 67, 3-(6-chloro-5-(6′-chloro-3′-fluoro-2′-hydroxy-[1,1′-biphenyl]-4-yl)-1H-indazol-3-yl)propanoic acid] yielded a concentration giving a half-maximal response (EC50) of 69 nM and an Emax of 85%. At AMPK 221, this compound came in with a 50% effective concentration (EC50) of 953 nM and a maximal effect (Emax) of 63%.

As for `CCOc1cccc(-c2ccc(-c3cc4c(CCC(=O)O)n[nH]c4cc3Cl)cc2)c1O` [Example 25, 3-(6-chloro-5-(3′-ethoxy-2′-hydroxy-[1,1′-biphenyl]-4-yl)-1H-indazol-3-yl)propanoic acid], at AMPK 111, the EC50 was 144 nM and the Emax is 71%. On AMPK 221, this compound returned a 50% effective concentration (EC50) of 107 nM and a maximum response (Emax) of 61%.

Regarding `O=C(O)CCc1c[nH]c2cc(Cl)c(-c3ccc(-c4ccccc4O)cc3)cc12` [Example 4, 3-(6-Chloro-5-(2′-hydroxy-[1,1′-biphenyl]-4-yl)-1H-indol-3-yl)propanoic acid], on AMPK 111, the EC50 was found to be 62 nM and the maximal response (Emax) came to 74%. Moreover, at AMPK 221, the 50% effective concentration (EC50) was 665 nM and the Emax was 34%.

`O=C(O)CCc1n[nH]c2cc(F)c(-c3ccc(-c4ccccc4O)cc3)cc12` [Example 33, 3-(6-fluoro-5-(2′-hydroxy-[1,1′-biphenyl]-4-yl)-1H-indazol-3-yl)propanoic acid]: on AMPK 111, a half-maximal effect (EC50) was put at 301 nM and the Emax was 57%. At AMPK 221, a half-maximal effect (EC50) was put at 196 nM and the Emax is 57%.

As for `Cc1ccccc1-c1ccc(-c2cc3c(CCC(=O)O)n[nH]c3cc2Cl)cc1` [Example 48, 3-(6-chloro-5-(2′-methyl-[1,1′-biphenyl]-4-yl)-1H-indazol-3-yl)propanoic acid], on AMPK 111, the concentration for a half-maximal effect (EC50) stood at 365 nM and the Emax came to 43%. Also, on AMPK 221, the EC50 was determined as 367 nM and the Emax is 9%.

The term EC50 denotes the concentration at which the effect is half-maximal. A low value points to a more potent agent. Broadly, the Emax is the greatest response seen or fitted, relative to the assay's reference.

Values taken from patent US20240336572A1, “SUBSTITUTED INDAZOLE PROPIONIC ACID DERIVATIVE COMPOUNDS AND USES THEREOF” (Pfizer Inc., priority 2023, published 2024).
